Data as given in patent publication US7041678B2 (priority 1999, dated 2006).
“Also recorded” adds a separate entry of the source.

How the values were obtained:
nor-1 promoter [1] = type: cell-based, Aspergillus parasiticus
nor-1 promoter [2] = type: cell-based, Aspergillus parasiticus; remark: listed apart in the source
aflatoxin biosynthesis = type: cell-based, Aspergillus parasiticus SU-1
nor-1 gene = type: cell-based, Aspergillus parasiticus SU-1
ipnA promoter = type: cell-based, Aspergillus nidulans
tri5 promoter = type: cell-based, Gibberella zeae
ver-1 promoter = experiment: Transcription from the ver-1 promoter; type: cell-based, Aspergillus parasiticus

## CCCCC/C=C/CCCCCC/C=C/C=C/C(=O)N1CCCCC1 [Cp2]
nor-1 promoter [1]
  Transcription from the nor-1 promoter: inhibit transcription
nor-1 promoter [2]
  Fungus growth on TLC plates: Fungal growth was seen; also recorded: did not inhibit fungus growth
  Inhibition of GUS in TLC bioassay: inhibitory properties
Aflatoxin biosynthesis
  Concentration that appeared to completely inhibit biosynthesis of aflatoxin: greater than 26 μg/ml
Aflatoxin biosynthesis; 2.6-78 μg/ml, 48 hours
  Amounts of aflatoxins B1 and G1: reduction
nor-1 gene
  Transcription of the nor-1 gene: inhibits
  nor-1 transcription at lower concentrations: did not completely inhibit
ipnA promoter
  Transcription from the ipnA promoter (GUS): inhibit transcription; also recorded: inhibited
tri5 promoter
  Transcription from the tri5 promoter (GUS): inhibit transcription; also recorded: inhibited
ver-1 promoter
  Transcription from the ver-1 promoter: inhibit transcription
